In paper PMC2654083 (The Journal of General Physiology, 2009):

Target: KirBac1.1 (Burkholderia pseudomallei, UniProt P83698)
Test: biochemical

KirBac1.1, sequence (P83698 1-333): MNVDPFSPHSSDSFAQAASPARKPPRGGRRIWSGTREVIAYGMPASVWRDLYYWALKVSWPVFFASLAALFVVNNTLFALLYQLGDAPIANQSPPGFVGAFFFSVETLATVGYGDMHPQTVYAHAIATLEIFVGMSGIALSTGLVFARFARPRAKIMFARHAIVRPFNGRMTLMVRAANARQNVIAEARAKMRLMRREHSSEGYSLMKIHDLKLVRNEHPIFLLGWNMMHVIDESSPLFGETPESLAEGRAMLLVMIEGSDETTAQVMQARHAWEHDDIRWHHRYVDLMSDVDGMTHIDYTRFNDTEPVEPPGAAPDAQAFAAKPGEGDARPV

Compound: NCCCNCCCCNCCCN [spermine]
- IC50: 800 µM
